Assay results reported in US10131652B2, “Pyrimidinyloxy benzene derivatives as herbicides” (E. I. DU PONT DE NEMOURS AND COMPANY, priority 2014, dated 2018).

Columns and labels:
Format in all cases: in vivo
[1] = test system: lambsquarters (Chenopodium album); assay: Test D pre-/postemergence plant response
Summary of the method: (§1)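 Each compound, in non-phytotoxic solvent with surfactant, was sprayed onto soil right after sowing or onto young plants 2 to 18 cm tall. After 13 to 15 days under greenhouse conditions, effects were judged visually against controls on a 0 (no effect) to 100 (complete control) scale.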

[2] = test system: large (Lg) crabgrass (Digitaria sanguinalis); assay: Test D pre-/postemergence plant response
Summary of the method: as §1

[3] = test system: morningglory (Ipomoea coccinea); assay: Test D pre-/postemergence plant response
Summary of the method: as §1

[4] = test system: waterhemp (common waterhemp, Amaranthus rudis); assay: Test D pre-/postemergence plant response
Summary of the method: as §1

[5] = test system: winter wheat (Triticum aestivum); assay: Test D pre-/postemergence plant response
Summary of the method: as §1

soybean (Glycine max) = assay: Test D pre-/postemergence plant response
Summary of the method: as §1

[6] = test system: Italian ryegrass (Lolium multiflorum); assay: Test D pre-/postemergence plant response
Summary of the method: as §1

[7] = test system: yellow nutsedge (Cyperus esculentus); assay: Test D pre-/postemergence plant response
Summary of the method: as §1

[8] = test system: galium (catchweed bedstraw, Galium aparine); assay: Test D pre-/postemergence plant response
Summary of the method: as §1

[9] = test system: ragweed (common ragweed, Ambrosia elatior); assay: Test D pre-/postemergence plant response
Summary of the method: as §1

corn (Zea mays) [10] = assay: Test D pre-/postemergence plant response
Summary of the method: as §1

[11] = test system: wheat (Triticum aestivum); assay: Test B pre-/postemergence plant response; conditions: 0 to 100 scale, 0 no effect, 100 complete control
Summary of the method: (§2)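 Evaluation is visual, about 10 days after application, rating injury from 0 (none) to 100 (complete control) relative to untreated controls. Application was a preemergence soil spray on seeded pots or a postemergence spray on one- to two-leaf plants.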

[12] = test system: barnyardgrass (Echinochloa crus-galli); assay: Test B pre-/postemergence plant response
Summary of the method: as §2

[13] = test system: pigweed (Amaranthus retroflexus); assay: Test B pre-/postemergence plant response
Summary of the method: as §2

[14] = test system: giant foxtail (Setaria faberii); assay: Test B pre-/postemergence plant response
Summary of the method: as §2

corn (Zea mays) [15] = assay: Test B pre-/postemergence plant response; conditions: 0 to 100 scale, 0 no effect, 100 complete control
Summary of the method: as §2

[16] = Postemergence, 16 g ai/ha, scale 0 to 100 (0 no effect, 100 complete control)
[17] = Postemergence, 31 g ai/ha, scale 0 to 100 (0 no effect, 100 complete control)
[18] = Postemergence, 62 g ai/ha, scale 0 to 100, 0 no effect, 100 complete control
[19] = Postemergence, 125 g ai/ha, scale 0 to 100, 0 no effect, 100 complete control
[20] = Preemergence, 16 g ai/ha, scale 0 to 100 (0 no effect, 100 complete control)
[21] = Preemergence, 31 g ai/ha, scale 0 to 100 (0 no effect, 100 complete control)
[22] = Preemergence, 62 g ai/ha, scale 0 to 100 (0 no effect, 100 complete control)
[23] = 31 g ai/ha, Postemergence, 0 to 100 scale, 0 no effect, 100 complete control
[24] = 31 g ai/ha, Preemergence, 0 to 100 scale where 0 is no effect and 100 is complete control
[25] = 125 g ai/ha, postemergence, 0 to 100 scale, 0 no effect, 100 complete control
[26] = Preemergence, 125 g ai/ha, 0 to 100 scale where 0 is no effect and 100 is complete control

Fc1cccc(Oc2ncc(Br)cn2)c1-c1cc(C(F)F)on1 [Compound 118]
Lambsquarters plant response rating [1, 16]: 75 | Lambsquarters plant response rating [1, 17]: 85 | Plant response rating, Lambsquarters [1, 18]: 90 | Plant response rating, Lambsquarters [1, 19]: 95 | Plant response rating (scale 0 to 100), Lambsquarters ([1]; Preemergence, 125 g ai/ha): 98 | Plant response rating, Lambsquarters [1, 20]: 90 | Plant response rating, Lambsquarters [1, 21]: 90 | Plant response rating, Lambsquarters [1, 22]: 95 | Crabgrass, Large plant response rating [2, 16]: 10 | Crabgrass, Large plant response rating [2, 17]: 10 | Plant response rating, Crabgrass, Large [2, 18]: 15 | Plant response rating, Crabgrass, Large [2, 19]: 20 | Plant response rating (scale 0 to 100), Crabgrass, Large ([2]; Preemergence, 125 g ai/ha): 100 | Plant response rating, Crabgrass, Large [2, 20]: 100 | Plant response rating, Crabgrass, Large [2, 21]: 100 | Plant response rating, Crabgrass, Large [2, 22]: 100 | Morningglory plant response rating [3, 16]: 85 | Morningglory plant response rating [3, 17]: 85 | Plant response rating, Morningglory [3, 18]: 85 | Plant response rating, Morningglory [3, 19]: 80 | Plant response rating (scale 0 to 100), Morningglory ([3]; Preemergence, 125 g ai/ha): 90 | Plant response rating, Morningglory [3, 20]: 30 | Plant response rating, Morningglory [3, 21]: 5 | Plant response rating, Morningglory [3, 22]: 85 | Waterhemp plant response rating [4, 16]: 85 | Waterhemp plant response rating [4, 17]: 90 | Plant response rating, Waterhemp [4, 18]: 95 | Plant response rating, Waterhemp [4, 19]: 98 | Plant response rating (scale 0 to 100), Waterhemp ([4]; Preemergence, 125 g ai/ha): 100 | Plant response rating, Waterhemp [4, 20]: 100 | Plant response rating, Waterhemp [4, 21]: 100 | Plant response rating, Waterhemp [4, 22]: 100 | Wheat plant response rating [5, 16]: 0 | Wheat plant response rating [5, 17]: 0 | Plant response rating, Wheat [5, 18]: 0 | Plant response rating, Wheat [5, 19]: 5 | Plant response rating (scale 0 to 100), Wheat ([5]; Preemergence, 125 g ai/ha): 5 | Plant response rating, Wheat [5, 20]: 0 | Plant response rating, Wheat [5, 21]: 0 | Plant response rating, Wheat [5, 22]: 0 | Soybean plant response rating (soybean (Glycine max); [16]): 75 | Soybean plant response rating (soybean (Glycine max); [17]): 60 | Plant response rating, Soybean (soybean (Glycine max); [18]): 60 | Plant response rating, Soybean (soybean (Glycine max); [19]): 90 | Plant response rating (scale 0 to 100), Soybean (soybean (Glycine max); Preemergence, 125 g ai/ha): 95 | Plant response rating, Soybean (soybean (Glycine max); [20]): 80 | Plant response rating, Soybean (soybean (Glycine max); [21]): 75 | Plant response rating, Soybean (soybean (Glycine max); [22]): 80 | Ryegrass, Italian plant response rating [6, 16]: 0 | Ryegrass, Italian plant response rating [6, 17]: 0 | Plant response rating, Ryegrass, Italian [6, 18]: 5 | Plant response rating, Ryegrass, Italian [6, 19]: 5 | Plant response rating (scale 0 to 100), Ryegrass, Italian ([6]; Preemergence, 125 g ai/ha): 60 | Plant response rating, Ryegrass, Italian [6, 20]: 0 | Plant response rating, Ryegrass, Italian [6, 21]: 5 | Plant response rating, Ryegrass, Italian [6, 22]: 65 | Nutsedge, Yellow plant response rating [7, 16]: 5 | Nutsedge, Yellow plant response rating [7, 17]: 5 | Plant response rating, Nutsedge, Yellow [7, 18]: 10 | Plant response rating, Nutsedge, Yellow [7, 19]: 10 | Plant response rating (scale 0 to 100), Nutsedge, Yellow ([7]; Preemergence, 125 g ai/ha): 65 | Plant response rating, Nutsedge, Yellow [7, 20]: 0 | Plant response rating, Nutsedge, Yellow [7, 21]: 0 | Plant response rating, Nutsedge, Yellow [7, 22]: 15 | Galium plant response rating [8, 16]: 85 | Galium plant response rating [8, 17]: 90 | Plant response rating, Galium [8, 18]: 90 | Plant response rating, Galium [8, 19]: 98 | Plant response rating (scale 0 to 100), Galium ([8]; Preemergence, 125 g ai/ha): 95 | Plant response rating, Galium [8, 20]: 60 | Plant response rating, Galium [8, 21]: 98 | Plant response rating, Galium [8, 22]: 95 | Ragweed plant response rating [9, 16]: 80 | Ragweed plant response rating [9, 17]: 45 | Plant response rating, Ragweed [9, 18]: 55 | Plant response rating, Ragweed [9, 19]: 85 | Plant response rating (scale 0 to 100), Ragweed ([9]; Preemergence, 125 g ai/ha): 85 | Plant response rating, Ragweed [9, 20]: 85 | Plant response rating, Ragweed [9, 21]: 20 | Plant response rating, Ragweed [9, 22]: 70 | Corn plant response rating (corn (Zea mays) [10]; [16]): 5 | Corn plant response rating (corn (Zea mays) [10]; [17]): 10 | Plant response rating, Corn (corn (Zea mays) [10]; [18]): 15 | Plant response rating, Corn (corn (Zea mays) [10]; [19]): 15 | Plant response rating (scale 0 to 100), Corn (corn (Zea mays) [10]; Preemergence, 125 g ai/ha): 30 | Plant response rating, Corn (corn (Zea mays) [10]; [20]): 0 | Plant response rating, Corn (corn (Zea mays) [10]; [21]): 5 | Plant response rating, Corn (corn (Zea mays) [10]; [22]): 30 | Plant response rating, Wheat ([11]; 31 g ai/ha, Postemergence): 20 | Plant response rating, Wheat ([11]; 125 g ai/ha, postemergence): 60 | Plant response rating, Barnyardgrass [12, 23]: 70 | Plant response rating, Barnyardgrass [12, 24]: 70 | Plant response rating, Barnyardgrass [12, 25]: 100 | Plant response rating, Barnyardgrass [12, 26]: 100 | Plant response rating, Pigweed [13, 23]: 100 | Plant response rating, Pigweed [13, 24]: 100 | Plant response rating, Pigweed [13, 25]: 100 | Plant response rating, Foxtail, Giant [14, 23]: 90 | Plant response rating, Foxtail, Giant [14, 24]: 100 | Plant response rating, Foxtail, Giant [14, 25]: 100 | Plant response rating, Foxtail, Giant [14, 26]: 100 | Plant response rating, Corn (corn (Zea mays) [15]; 31 g ai/ha, Postemergence): 50 | Plant response rating, Corn (corn (Zea mays) [15]; 125 g ai/ha, postemergence): 100
